Measured values taken from patent US5556744A, “Methods and compositions for diagnosing and treating certain HIV infected patients” (The Trustees of the University of Pennsylvania, priority 1994, dated 1996).

Legend:
[1] = system: maternal HIV+ sera (antibodies); test: RIA / ELISA binding of maternal HIV+ sera to gp120 and gp41 peptides (Example 3); design: species or system human
Procedure, shortened: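 Peptides were coated at 10 μg/ml in carbonate buffer pH 9.6 and blocked with 1% BSA. Sera at 1:50 and 1:500 were incubated overnight at 4°C and detected with ¹²⁵I anti-human IgG (RIA) or HRP/TMB at OD450 (ELISA). Specific binding was taken as peptide minus no-peptide wells, scored as a ratio to normal human serum.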

[2] = system: maternal sera (antibodies); test: ELISA peptide-binding of maternal sera (Example 6); design: species or system human; settings: for Number of Non-Transmitters which bound to peptide / Percent of Non-Transmitters which bound to peptide: N = 12; for Number of Transmitters which bound to peptide / Percent of Transmitters which bound to peptide: N = 4
Excerpt: A total of 86 maternal sera samples obtained from patients of the Hospital of the University of Pennsylvania during the third trimester of pregnancy were used in this study 58 (67%) were non-transmitters and 28 (33%) were transmitters. This is approximately consistent with the national average (i.e. a rate of transmission between 25-30%). Transmission status was based upon serological or molecular diagnosis of children (at an age of greater than 15 months) born to these mothers. Because of the constraints on the volume of serum available for many of these samples, not all sera were analyzed with all the peptides. However, each sera sample was run with at least 40 peptides.
These peptides are of an average length of 16 amino acids and covered the entire external as well as the transmembrane glycoprotein of HIV-1. Peptide binding was analyzed by ELISA essentially as described in Example 3.
The results of one study, using some of the peptides identified above among others, is provided in Table 12, which illustrates the number and percent of non-transmitters which bound to the tested peptide. The percentage designation refers to the percentage of sera samples which bound to a particular peptide. A value of greater than 0% means that at least one of the samples bound to the particular peptides.

[3] = Serum No. 1, Non-Transmission Group
[4] = Serum No. 2, Non-Transmission Group
[5] = Serum No. 3, Non-Transmission Group
[6] = Serum No. 4, Transmission Group
[7] = Serum No. 5, Transmission Group
[8] = Serum No. 6, Non-Transmission Group
[9] = Serum No. 7, Non-Transmission Group
[10] = Serum No. 8, Non-Transmission Group
[11] = Serum No. 9, Non-Transmission Group
[12] = Serum No. 10, Transmission Group
[13] = Serum No. 11, Non-Transmission Group
[14] = Serum No. 12, Non-Transmission Group
[15] = Serum No. 13, Transmission Group
[16] = Serum No. 14, Transmission Group
[17] = Serum No. 15, Transmission Group
[18] = Serum No. 16, Non-Transmission Group
[19] = Serum No. 17, Non-Transmission Group
[20] = Serum No. 18, Non-Transmission Group
[21] = Serum No. 19, Transmission Group
[22] = Serum No. 20, Non-Transmission Group

| Substance | Binding of maternal HIV+ serum to peptide (sera/NHS ratio) [1, 3] | Binding of maternal HIV+ serum to peptide (sera/NHS ratio) [1, 4] | Binding of maternal HIV+ serum to peptide (sera/NHS ratio) [1, 5] | Binding of maternal HIV+ serum to peptide (sera/NHS ratio) [1, 6] | Binding of maternal HIV+ serum to peptide (sera/NHS ratio) [1, 7] | Binding of maternal HIV+ serum to peptide (sera/NHS ratio) [1, 8] | Binding of maternal HIV+ serum to peptide (sera/NHS ratio) [1, 9] | Binding of maternal HIV+ serum to peptide (sera/NHS ratio) [1, 10] | Binding of maternal HIV+ serum to peptide (sera/NHS ratio) [1, 11] | Binding of maternal HIV+ serum to peptide (sera/NHS ratio) [1, 12] | Binding of maternal HIV+ serum to peptide (sera/NHS ratio) [1, 13] | Binding of maternal HIV+ serum to peptide (sera/NHS ratio) [1, 14] | Binding of maternal HIV+ serum to peptide (sera/NHS ratio) [1, 15] | Binding of maternal HIV+ serum to peptide (sera/NHS ratio) [1, 16] | Binding of maternal HIV+ serum to peptide (sera/NHS ratio) [1, 17] | Binding of maternal HIV+ serum to peptide (sera/NHS ratio) [1, 18] | Binding of maternal HIV+ serum to peptide (sera/NHS ratio) [1, 19] | Binding of maternal HIV+ serum to peptide (sera/NHS ratio) [1, 20] | Binding of maternal HIV+ serum to peptide (sera/NHS ratio) [1, 21] | Binding of maternal HIV+ serum to peptide (sera/NHS ratio) [1, 22] | other results |
| --- | --- | --- | --- | --- | --- | --- | --- | --- | --- | --- | --- | --- | --- | --- | --- | --- | --- | --- | --- | --- | --- |
| RIQRGPGRAFVTIGK [p18p] | - (specific OD450 or cpm of sera sample binding to peptide divided by the specific OD450 or cpm of NHS sample binding to peptide, which value is less than 2) | - (specific OD450 or cpm of sera sample binding to peptide divided by the specific OD450 or cpm of NHS sample binding to peptide, which value is less than 2) | - (specific OD450 or cpm of sera sample binding to peptide divided by the specific OD450 or cpm of NHS sample binding to peptide, which value is less than 2) | - (specific OD450 or cpm of sera sample binding to peptide divided by the specific OD450 or cpm of NHS sample binding to peptide, which value is less than 2) | - (specific OD450 or cpm of sera sample binding to peptide divided by the specific OD450 or cpm of NHS sample binding to peptide, which value is less than 2) | - (specific OD450 or cpm of sera sample binding to peptide divided by the specific OD450 or cpm of NHS sample binding to peptide, which value is less than 2) | - (specific OD450 or cpm of sera sample binding to peptide divided by the specific OD450 or cpm of NHS sample binding to peptide, which value is less than 2) | - (specific OD450 or cpm of sera sample binding to peptide divided by the specific OD450 or cpm of NHS sample binding to peptide, which value is less than 2) | - (specific OD450 or cpm of sera sample binding to peptide divided by the specific OD450 or cpm of NHS sample binding to peptide, which value is less than 2) | - (specific OD450 or cpm of sera sample binding to peptide divided by the specific OD450 or cpm of NHS sample binding to peptide, which value is less than 2) | - (specific OD450 or cpm of sera sample binding to peptide divided by the specific OD450 or cpm of NHS sample binding to peptide, which value is less than 2) | ++ (which value is greater than 3) | ++ (which value is greater than 3) | ++ (which value is greater than 3) | ++ (which value is greater than 3) | + (which value is between 2 to 3) | ++ (which value is greater than 3) | - (specific OD450 or cpm of sera sample binding to peptide divided by the specific OD450 or cpm of NHS sample binding to peptide, which value is less than 2) | - (specific OD450 or cpm of sera sample binding to peptide divided by the specific OD450 or cpm of NHS sample binding to peptide, which value is less than 2) | + (which value is between 2 to 3) | Percentage of sera samples demonstrating binding to peptide, non-transmitter ([1]; Non-transmitter group, n = 13): 30.7%; Percentage of sera samples demonstrating binding to peptide, transmitter ([1]; Transmitter / transmission group, n = 7): 42.8%; Percent of the maternal serum samples that bound to the peptide ([1]; all 20 samples): 35%; Number of Non-Transmitters which bound to peptide [2]: 3; Percent of Non-Transmitters which bound to peptide [2]: 25%; Number of Transmitters which bound to peptide [2]: 0; Percent of Transmitters which bound to peptide [2]: 0% |
| CIVQQQNNLLRAI-EAQQHLLQLTVWGIKQL (CIVQQQNNLLRAIEAQQHLLQLTVWGIKQL) [Peptide 560] | + (which value is between 2 to 3) | - (specific OD450 or cpm of sera sample binding to peptide divided by the specific OD450 or cpm of NHS sample binding to peptide, which value is less than 2) | - (specific OD450 or cpm of sera sample binding to peptide divided by the specific OD450 or cpm of NHS sample binding to peptide, which value is less than 2) | - (specific OD450 or cpm of sera sample binding to peptide divided by the specific OD450 or cpm of NHS sample binding to peptide, which value is less than 2) | - (specific OD450 or cpm of sera sample binding to peptide divided by the specific OD450 or cpm of NHS sample binding to peptide, which value is less than 2) | - (specific OD450 or cpm of sera sample binding to peptide divided by the specific OD450 or cpm of NHS sample binding to peptide, which value is less than 2) | - (specific OD450 or cpm of sera sample binding to peptide divided by the specific OD450 or cpm of NHS sample binding to peptide, which value is less than 2) | - (specific OD450 or cpm of sera sample binding to peptide divided by the specific OD450 or cpm of NHS sample binding to peptide, which value is less than 2) | - (specific OD450 or cpm of sera sample binding to peptide divided by the specific OD450 or cpm of NHS sample binding to peptide, which value is less than 2) | - (specific OD450 or cpm of sera sample binding to peptide divided by the specific OD450 or cpm of NHS sample binding to peptide, which value is less than 2) | - (specific OD450 or cpm of sera sample binding to peptide divided by the specific OD450 or cpm of NHS sample binding to peptide, which value is less than 2) | - (specific OD450 or cpm of sera sample binding to peptide divided by the specific OD450 or cpm of NHS sample binding to peptide, which value is less than 2) | - (specific OD450 or cpm of sera sample binding to peptide divided by the specific OD450 or cpm of NHS sample binding to peptide, which value is less than 2) | - (specific OD450 or cpm of sera sample binding to peptide divided by the specific OD450 or cpm of NHS sample binding to peptide, which value is less than 2) | - (specific OD450 or cpm of sera sample binding to peptide divided by the specific OD450 or cpm of NHS sample binding to peptide, which value is less than 2) | - (specific OD450 or cpm of sera sample binding to peptide divided by the specific OD450 or cpm of NHS sample binding to peptide, which value is less than 2) | - (specific OD450 or cpm of sera sample binding to peptide divided by the specific OD450 or cpm of NHS sample binding to peptide, which value is less than 2) | - (specific OD450 or cpm of sera sample binding to peptide divided by the specific OD450 or cpm of NHS sample binding to peptide, which value is less than 2) | - (specific OD450 or cpm of sera sample binding to peptide divided by the specific OD450 or cpm of NHS sample binding to peptide, which value is less than 2) | - (specific OD450 or cpm of sera sample binding to peptide divided by the specific OD450 or cpm of NHS sample binding to peptide, which value is less than 2) | Number of Non-Transmitters which bound to peptide [2]: 0; Percent of Non-Transmitters which bound to peptide [2]: 0%; Number of Transmitters which bound to peptide [2]: 0; Percent of Transmitters which bound to peptide [2]: 0% |
